Measurements reported in ChEMBL document CHEMBL1142614, “An antimicrobial C(14) acetylenic acid from a marine sponge Oceanapia species” (2000).
Active and inactive are the calls of the source. The rule behind the calls is not given here.

How the values were obtained:
Saccharomyces cerevisiae [1] = assay: Antimicrobial activity against Saccharomyces cerevisiae GT160-45C at 100 ug after 24 hrs; format: functional; details: read-out: IZ
Pseudomonas aeruginosa [2] = assay: Antimicrobial activity against Pseudomonas aeruginosa at 50 ug after 24 hrs; format: functional; details: read-out: IZ
Saccharomyces cerevisiae [3] = assay: Antimicrobial activity against Saccharomyces cerevisiae act1-1 mutant at 100 ug after 24 hrs; format: functional; details: read-out: IZ
Saccharomyces cerevisiae [4] = assay: Antimicrobial activity against Saccharomyces cerevisiae YAT2296 mutant at 100 ug after 24 hrs; format: functional; details: read-out: IZ
Escherichia coli [5] = assay: Antimicrobial activity against Escherichia coli at 100 ug after 24 hrs; format: functional; details: read-out: IZ
Umbelopsis ramanniana = assay: Antimicrobial activity against Mortierella ramanniana after 24 hrs; format: functional, organism-based
Bacillus subtilis = assay: Antimicrobial activity against Bacillus subtilis at 100 ug after 24 hrs; format: functional; details: read-out: IZ
Saccharomyces cerevisiae [6] = assay: Antimicrobial activity against Saccharomyces cerevisiae cdc5 mutant at 50 ug after 24 hrs; format: functional; details: read-out: IZ
Staphylococcus aureus [7] = assay: Antimicrobial activity against Staphylococcus aureus at 50 ug after 24 hrs; format: functional; details: read-out: IZ
Penicillium chrysogenum = assay: Antimicrobial activity against Penicillium chrysogenum after 24 hrs; format: functional, organism-based
Staphylococcus aureus [8] = assay: Antimicrobial activity against Staphylococcus aureus at 100 ug after 24 hrs; format: functional; details: read-out: IZ
Escherichia coli [9] = assay: Antimicrobial activity against Escherichia coli at 50 ug after 24 hrs; format: functional; details: read-out: IZ
Candida albicans = assay: Antimicrobial activity against Candida albicans at 100 ug after 24 hrs; format: functional; details: read-out: IZ
Saccharomyces cerevisiae [10] = assay: Antimicrobial activity against Saccharomyces cerevisiae cdc5 mutant at 100 ug after 24 hrs; format: functional; details: read-out: IZ
Saccharomyces cerevisiae [11] = assay: Antimicrobial activity against Saccharomyces cerevisiae act1-1 mutant at 50 ug after 24 hrs; format: functional; details: read-out: IZ
Pseudomonas aeruginosa [12] = assay: Antimicrobial activity against Pseudomonas aeruginosa at 100 ug after 24 hrs; format: functional; details: read-out: IZ
Saccharomyces cerevisiae [13] = assay: Antimicrobial activity against Saccharomyces cerevisiae YAT2296 mutant at 50 ug after 24 hrs; format: functional; details: read-out: IZ

Question: For `CC/C=C/C#C/C=C/C#CCCCC(=O)O`, which zone of inhibition at 100 µg/disc (Saccharomyces cerevisiae [1]) is on record?
Answer: Its zone of inhibition at 100 µg/disc is 6.5 mm.

Question: What about the zone of inhibition at 50 µg/disc (Pseudomonas aeruginosa [2]) of the same compound?
Answer: The zone of inhibition at 50 µg/disc was 8.5 mm.

Question: What about the zone of inhibition at 100 µg/disc (Saccharomyces cerevisiae [3]) of the same compound?
Answer: The zone of inhibition at 100 µg/disc was 10 mm.

Question: And the zone of inhibition at 100 µg/disc (Saccharomyces cerevisiae [4])?
Answer: Its zone of inhibition at 100 µg/disc is 7 mm.

Question: And the zone of inhibition at 100 µg/disc (Escherichia coli [5])?
Answer: The zone of inhibition at 100 µg/disc was 12 mm.

Question: What about the Activity (Umbelopsis ramanniana) of the same compound?
Answer: The Activity was “inactive”.

Question: And the zone of inhibition at 100 µg/disc (Bacillus subtilis)?
Answer: The zone of inhibition at 100 µg/disc was 11 mm.

Question: What about the zone of inhibition at 50 µg/disc (Saccharomyces cerevisiae [6]) of the same compound?
Answer: Its zone of inhibition at 50 µg/disc is 7 mm.

Question: And the zone of inhibition at 50 µg/disc (Staphylococcus aureus [7])?
Answer: Its zone of inhibition at 50 µg/disc is 9.5 mm.

Question: What about the Activity (Penicillium chrysogenum) of the same compound?
Answer: The Activity was “inactive”.

Question: And the zone of inhibition at 100 µg/disc (Staphylococcus aureus [8])?
Answer: Its zone of inhibition at 100 µg/disc is 13.5 mm.

Question: What about the zone of inhibition at 50 µg/disc (Escherichia coli [9]) of the same compound?
Answer: Its zone of inhibition at 50 µg/disc is 8.5 mm.

Question: And the zone of inhibition at 100 µg/disc (Candida albicans)?
Answer: Its zone of inhibition at 100 µg/disc is 8.5 mm.

Question: What about the zone of inhibition at 100 µg/disc (Saccharomyces cerevisiae [10]) of the same compound?
Answer: The zone of inhibition at 100 µg/disc was 7.5 mm.

Question: And the zone of inhibition at 50 µg/disc (Saccharomyces cerevisiae [11])?
Answer: Its zone of inhibition at 50 µg/disc is 9 mm.

Question: What about the zone of inhibition at 100 µg/disc (Pseudomonas aeruginosa [12]) of the same compound?
Answer: The zone of inhibition at 100 µg/disc was 13 mm.

Question: What about the zone of inhibition at 50 µg/disc (Saccharomyces cerevisiae [13]) of the same compound?
Answer: Its zone of inhibition at 50 µg/disc is 6.5 mm.
